Results: a melting point compilation (Tetko et al.; mined from patent text by program, amines drawn as free bases though some values may be those of a salt)

First: CC(=O)OCCn1c(C)nc2ccccc2c1=O
Second: CC(=O)OCCn1c([N+](=O)[O-])cnc1C
The melting point of the first is higher: 158 to 160 °C for the first, 143 to 145 °C for the second.

First: COc1cc(Oc2cccc(C(F)(F)F)c2)nc(C(=S)Nc2ccccc2)c1
Second: COc1ccc(C(Sc2cc(Oc3cccc(C)c3)ccc2N)C(O)C(=O)O)cc1 (stereo unspecified)
The melting point of the first is lower: 126 to 128 °C for the first, 163 to 165 °C for the second.

Compared with `NC(=O)Cc1cc(=O)oc2cc(OCc3cccc(Cl)c3)ccc12`, `COC(=O)c1cc(OCc2cccc(Cl)c2)ccc1OCCCC#N` is lower in melting point: 185 to 186 °C for the first, 97 to 98 °C for the second.

First: COc1cc(Nc2c(C#N)cnc3cc(-c4cccc(C=O)c4)sc23)c(Cl)cc1Cl
Second: CN(C)CCOc1cc2c(Nc3cccc(Br)c3)c(C#N)cnc2cn1
The melting point of the first is higher: 262 to 263 °C for the first, 138 to 139 °C for the second.

First: Cc1c(/C=C2\COc3ccc4ccccc4c3C2=O)ncn1C(c1ccccc1)(c1ccccc1)c1ccccc1
Second: [N-]=[N+]=NC1CC(n2cc(I)c(=O)[nH]c2=O)OC1C(O)C(c1ccccc1)(c1ccccc1)c1ccccc1 (stereo unspecified)
The melting point of the first is higher: 164 to 167 °C for the first, 80 °C for the second.

First: COc1cc2c(cc1Nc1ncc(Cl)c(Nc3ccc(N4CCOCC4)cc3OC)n1)CCOC(=O)N2C
Second: C=C(C)c1c2c(c(C)c(C)c1N1CCN(c3ccc(OC)cc3)CC1)OC(C)(C)C2
The melting point of the first is higher: 242 to 245 °C for the first, 174 to 175 °C for the second.

First: Cc1cc(-c2noc(C(F)(F)F)n2)cc(C)c1OCCCc1ccc(CCl)nc1
Second: Nc1ccc(-c2noc(-c3cnn4c(C(F)F)cc(-c5ccc(C(F)(F)F)cc5)nc34)n2)cn1
The melting point of the first is lower: 79 to 81 °C for the first, 242 °C for the second.

Compared with `CC12C=CC(=O)C=C1CCC1C2C(O)CC2(C)C1CCC2(O)C(O)C(=O)O` (stereo unspecified), `CC1(C)CCC(C)(C)c2cc(NCC(=O)O)ccc21` is higher in melting point: 213 to 214 °C for the first, greater than 360 °C for the second.

First: O=S(=O)(NCc1ccnnc1)c1cc(Br)cs1
Second: O=C(O)Cc1ccc2c(c1)sc1cc(Cl)ccc12
The melting point of the first is lower: 120 to 122 °C for the first, 198 to 200 °C for the second.

First: O=C(CCl)Nc1ccc2c(c1NC(=O)c1ccc(C(F)(F)F)cc1)C(=O)c1ccccc1C2=O
Second: O=C(NCCCCC(NS(=O)(=O)c1ccc2oc3ccccc3c2c1)C(=O)O)OCc1ccccc1 (stereo unspecified)
The melting point of the first is higher: 203 to 204 °C for the first, 133 to 135 °C for the second.

First: CCn1cc(-c2cc(-c3nc(C(C)C)[nH]c3-c3cccc(C)n3)ccc2F)cn1
Second: O=c1[nH]nc(-c2ccc(-n3ccnc3)cc2)c2cccnc12
The melting point of the first is lower: 76 to 78 °C for the first, 359 to 361 °C for the second.

First: Cn1cncc1-c1cnc(-c2ccccc2)nc1
Second: c1cncc(CCNc2nc(-c3cccs3)ncc2-n2cccn2)c1
The melting point of the first is higher: 144 °C for the first, 133 to 134 °C for the second.

First: Cc1nc2ccccn2c(=O)c1CCN1CC[C@H](Nc2nc3ccccc3n2Cc2ccc(F)cc2)[C@H](C)C1 (relative stereo)
Second: CN1C(=O)C(c2c[nH]c3ccccc23)=C(c2cn(C)c3ccccc23)C1=O
The melting point of the first is lower: 161 °C for the first, 168 to 171 °C for the second.

First: Cc1ccc2c(c1)c1c(n2C(=O)c2ccc(F)cc2)CCC(C(=O)O)C1 (stereo unspecified)
Second: Cc1ccc(S(=O)(=O)N2CCN(C(=O)c3cc4cc(O)ccc4cc3O)CC2)cc1
The melting point of the first is higher: 230 to 233 °C for the first, 135 to 137 °C for the second.

First: CCOc1ccc(CCCCCCC(=O)O)cc1
Second: CCOC(=O)/C=C/c1cc(OCc2ccccc2)ccc1Br
The melting point of the first is lower: 65 to 66 °C for the first, 72 to 74 °C for the second.

Compared with `CC(=O)NC(C)COC1CCC(c2cc3ccc(OCC4CC4)cc3o2)CC1` (stereo unspecified), `CC(=O)NCC1CCC(Nc2nc3c(s2)CCCc2ccc(F)cc2-3)CC1` (stereo unspecified) is lower in melting point: 104 to 105 °C for the first, 88 to 91 °C for the second.

First: COc1cccc2ccc(C(F)(F)F)nc12
Second: CC1=C(C#N)C(c2ccccc2C(F)(F)F)c2c(ccnc2OC(C)C)N1 (stereo unspecified)
The melting point of the first is lower: 88 to 89 °C for the first, 207 to 209 °C for the second.

Compared with `CC1CCN(C(=O)[C@H]2CC=CC[C@@H]2NC(=O)C(F)(F)F)CC1`, `O=C(OCC1CC1)c1ncn2c1C1C=CCN1C(=O)c1c(Cl)cccc1-2` (stereo unspecified) is higher in melting point: 169 to 170 °C for the first, 189 to 190 °C for the second.

First: NCC(CC(=O)O)CC1CC1 (stereo unspecified)
Second: NCC(O)COc1cccc2c1=NC(=O)N=2 (stereo unspecified)
The melting point of the first is lower: 172 to 173 °C for the first, 188 to 190 °C for the second.

Compared with `CC(=O)Nc1ccc2nc3n(c2c1)CCC3`, `CC(=N)Nc1cccc(C(C)O)c1` (stereo unspecified) is lower in melting point: 250 to 255 °C for the first, 132 to 135 °C for the second.

Compared with `NC(=N[N+](=O)[O-])NCCC[C@@H](NC(=O)C(c1ccccc1)c1ccccc1)C(=O)NCc1ccc(COC(=O)Oc2ccccc2)cc1`, `COc1ccc(CC(NC(=O)c2ccccc2)c2cccnc2)cc1OC` (stereo unspecified) is lower in melting point: 186 to 187 °C for the first, 156 to 158 °C for the second.

Compared with `Cc1cccc(Nc2ccccc2-c2n[nH]c(=O)o2)c1C`, `CCOC(=O)C(=O)/C=C/c1ccc(OCc2nc(-c3ccccc3)oc2C)cc1` is lower in melting point: 239 to 241 °C for the first, 110 to 111 °C for the second.

First: CN(C)c1ccc2c(c1)CN1C(=Nc3cccnc3)SC[C@@H]1C2
Second: CC(C)P1(=O)c2ccccc2CN1c1ccc(Cl)cc1 (stereo unspecified)
The melting point of the first is lower: 138 °C for the first, 172 to 174 °C for the second.

First: CCCCCCCCCCCC1=NCCN1CCO
Second: CCc1n[nH]c(CC)c1CCCCCCOc1cc(Cl)c(OC)cc1Cl
The melting point of the first is lower: 40 to 42 °C for the first, 148 to 150 °C for the second.

First: Cc1c(Cc2ccc(Cl)cc2)c(=O)oc2cc(O)cc(O)c12
Second: CC(=O)NCC1CN(c2ccc(-c3cccc(CF)c3)c(F)c2)C(=O)O1 (stereo unspecified)
The melting point of the first is higher: 270 to 278 °C for the first, 120 to 122 °C for the second.

Compared with `COc1ccccc1N1CCN(CCN2C(=O)c3ccccc3C2=O)CC1`, `CCOC(=O)N1CCN(C2=Nc3ccccc3Sc3ccc(Cl)cc32)CC1` is higher in melting point: 76 to 81 °C for the first, 96.5 to 97.5 °C for the second.

Compared with `O=C(Nc1ncccn1)c1c(O)ccc2cc(-c3cccc(O)c3)ccc12`, `CCOC(=O)c1c(Oc2cccc(Cl)c2)c2cc(C(c3ccc(Cl)cc3)c3cnc(-c4ccccc4)[nH]3)ccc2[nH]c1=O` (stereo unspecified) is higher in melting point: 156 °C for the first, 189 °C for the second.

First: CC(C)Oc1cc(N2NC(C)(C)NC2=O)c(Cl)cc1Cl
Second: C=C1C(=O)NC(=O)N1c1cccc(Cl)c1Cl
The melting point of the first is lower: 162 to 163 °C for the first, 201 to 203 °C for the second.

Compared with `CN(c1n[nH]c2ncnc(Nc3cccc(Cl)c3)c12)C1CCCCC1`, `COc1ccc(Cn2c(C)nc3c(Cl)ncnc32)cc1` is lower in melting point: 188 to 190 °C for the first, 121 to 123 °C for the second.

First: Nc1cccc2nc(=O)cccc12
Second: CN(CCN[C@H]1CC[C@H](c2ccccc2)CC1)c1ccc2[nH]c(=O)oc2c1
The melting point of the first is lower: 175 to 178 °C for the first, 229 to 234 °C for the second.

Compared with `COc1ccc(Cc2nc3n(c2Cc2ccc(OC)cc2)CCS3(=O)=O)cc1`, `COc1ccc(-c2c3c(cc4ccc5c(c24)OCO5)C(=O)NCC3)cc1` is higher in melting point: 231 to 232 °C for the first, 245 to 247 °C for the second.

Compared with `Cc1c(OC(C)(C)C(=O)O)ccc(OCCCC#Cc2ccc(OC(F)(F)F)cc2)c1F`, `Nc1ccc(-n2ccn(-c3ccc(OCC(F)(F)C(F)F)cc3)c2=O)cc1` is higher in melting point: 116 to 118 °C for the first, 178 to 179 °C for the second.

First: COc1nn(CC(C)=O)c(=O)s1
Second: COc1ccccc1NC(=O)[C@@H]1Cc2[nH]cnc2CN1C(C)=O
The melting point of the first is lower: 66 to 67 °C for the first, 159 °C for the second.

First: CNC(=O)[C@@H](NC(=O)[C@@H](CC(=O)O)n1ccc(-c2ccc(C#N)cc2)c1)C(C)(C)C
Second: COC(CCN(C(=O)OC(C)(C)C)c1cc(OCc2ccccc2)c2ncccc2c1I)OC
The melting point of the first is higher: 138 to 140 °C for the first, 120 to 121 °C for the second.

Compared with `CCN(CC)C(=O)c1ccc(S(=O)(=O)N(CC)CC)o1`, `C=CCN1CCCC1CNC(=O)c1cc(S(N)(=O)=O)cc2c1OCCO2` (stereo unspecified) is higher in melting point: 56.4 °C for the first, 143 to 144 °C for the second.

Compound `O=C1NC(=S)SC1=Cc1ccc2c(c1)N(CCc1ccc(F)c(F)c1)C(=O)CO2` has a melting point of 263 to 266 °C.
